# Values quoted from earlier work, collected in article PMC3688238, “The effect of different dosing regimens of motesanib on the gallbladder: a randomized phase 1b study in patients with advanced solid tumors” (BMC Cancer, 2013).
# Read-outs that look alike come from different tables or passages of the source.
# System: gallbladder
# Conditions: cited from earlier work
structure (smiles),measurement,setting,value
COc1cc2c(Oc3ccc4[nH]c(C)cc4c3F)ncnc2cc1OCCCN1CCCC1 [Cediranib],Adverse events reported,"phase 1 study, ref Laurie et al. [21]",Acute cholecystitis
same,Adverse events reported,"phase 2 study, ref Batchelor et al. [22]","Gallbladder obstruction, abdominal pain"
Cc1ccc(NC(=O)c2ccc(CN3CCN(C)CC3)cc2)cc1Nc1nccc(-c2cccnc2)n1 [Imatinib],Adverse events reported,"case report, ref Breccia et al. [37]","Gallstones, gallbladder wall thickening, abdominal pain"
same,Adverse events reported,"phase 1 study, ref Grant et al. [24]",Cholecystitis
same,Adverse events reported,"single-arm study, ref Yeh et al. [23]",Gallstones
CNC(=O)c1cc(Oc2ccc(NC(=O)Nc3ccc(Cl)c(C(F)(F)F)c3)cc2)ccn1 [Sorafenib],Adverse events reported,"case report, ref Sanda et al. [20]","Right upper abdominal pain, gallbladder edema, acute acalculous cholecystitis"
same,Adverse events reported,ref Nexavar European public assessment report [26],"Cholecystitis, cholangitis"
same,Adverse events reported,ref Nexavar US prescribing information [25],"Cholecystitis, cholangitis"
CCN(CC)CCNC(=O)c1c(C)[nH]c(/C=C2\C(=O)Nc3ccc(F)cc32)c1C [Sunitinib],Adverse events reported,"case report, ref De Lima Lopes, Jr., et al. [18]","Acute emphysematous cholecystitis, right upper abdominal pain, gallbladder distension"
same,Adverse events reported,"case report, ref Gomez-Abuin et al. [19]","Acute acalculous cholecystitis, right upper abdominal pain, gallbladder wall thickening"
same,Adverse events reported,"single-arm study, ref Motzer et al. [17]",Acute cholecystitis
